The values that follow come from PubChem BioAssay (NCI).

“And” between values parts separate entries of the source, which are not always exact repeats. Equal values may be shown once.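 Results reflect a 48-hour exposure of cells in 96-well plates to compound at five concentrations. Abbreviation: GI50, concentration required for 50% inhibition of growth. The concentration for full growth arrest is given as TGI.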

What all share (test): NCI anticancer screen, dose series, 48 h
Test [1] concerns PC-3 prostate.
Test [2] deals with SNB-75 CNS.
The test system of test [3] is MOLT-4 leukemia.
The test system of test [4] is CCRF-CEM leukemia.
The subject of test [5] is HCT-15 colon.
The subject of test [6] is TK-10 renal.
For test [7], the system named is EKVX NSCLC.
For test [8], the system named is SF-268 CNS.
Test [9] deals with SW-620 colon.
The test system of test [10] is UO-31 renal.

In the case of `O=C1C=C(OCC=C(Cl)Cl)C(=O)c2ccccc21`, the GI50 was 5.14 µM in test [1]; 7.4 µM in [2]; 2.34 µM in [3]; 3.03 µM in test [4]; 7.05 µM in [5]; 61.2 µM in test [6]. For the same compound, the GI50 was 3.33 µM in [7], 6.57 µM in [8], 3.51 µM in [9] and 3.15 µM in [10]. Moreover, the TGI in test [1] was above 100 µM; in test [2] it was 56.9 µM; in test [3], above 24 µM; in test [4], above 19.7 µM; in test [5], above 100 µM; in test [6], above 100 µM. In addition, the TGI in [7] was 28.2 µM; in test [8] it was above 85.7 µM; in test [9], 11.1 µM; in test [10], 15.9 µM.

`COC(=O)C(=O)C(C(=O)C(=O)Nc1nc(=S)[nH][nH]1)c1nc2ccc([N+](=O)[O-])cc2[nH]c1=O` (stereo not given): the TGI in [1], in [2], in test [4], in test [5], in [6] and in [7] was above 100 µM throughout. Further, the TGI in test [8], in test [9] and in [10] was above 100 µM in each case.

Take `CN1CCN(Cc2ccc(NC(=O)c3[nH]ncc3Nc3cc(OC4CCCC4)ncn3)cc2)CC1`: the GI50 in test [1] is 2.26 µM; in test [2], 3.53 µM; in test [3], 2.16 µM; in test [4] it was 2.39 µM; in test [5], 1.24 µM; in [6] it was 11 µM. Moreover, the GI50 in [7] is 3.86 µM; in test [8], 4.48 µM; in test [9], 2.66 µM; in test [10] it was 1.4 µM. Besides, the TGI was determined as 11.1 µM in [1]; 16.4 µM in test [2]; 8.66 µM in [3]; 11.2 µM in test [4]; 11 µM in test [5]; 23.7 µM in test [6]. Also, the TGI amounted to 18.6 µM in test [7], 19 µM in test [8], 7.25 µM in test [9] and 11.2 µM in test [10].

On to `O=C(N/N=C/c1cccc(O)c1)c1ccc(C(F)(F)F)nc1Nc1cccc(C(F)(F)F)c1`, for which the GI50 was 1.66 µM in [1]; 1.58 µM in test [2]; 0.43 µM in [3]; 0.258 µM in test [4]; 0.881 µM in [5]; 1.44 µM in test [6]. In addition, the GI50 in test [7] was 1.01 µM; in [8], 1.04 µM; in test [9] it was 1.63 µM; in test [10], 1.59 µM. Besides, the TGI in test [1] came out at 7.67 µM; in test [2], 6.03 µM; in test [3] it was 2.09 µM; in [4] it was 1.08 µM; in [5] it was 10.1 µM; in test [6], 4.64 µM. In addition, the TGI in test [7] amounted to 3.37 µM; in test [8], 6.13 µM; in test [9] it was 5.77 µM; in test [10] it was 5.08 µM.

`CCC(=O)Oc1ccc(/C=N/NC(N)=S)nc1`: the GI50 in [1] is 6.83 µM; in test [2], 6.13 µM; in test [3], 3.3 µM; in test [4] it was 2.81 µM; in test [5] it was 6.38 µM; in test [6], 49 µM. The GI50 in [7] was 43.7 µM; in test [8], 3.46 µM; in [9], 7.67 µM; in [10] it was 3.48 µM. Further, the TGI in test [1], in test [2], in [3], in test [4], in test [5] and in test [6] was above 100 µM each time. The TGI in test [7] is above 100 µM; in test [8], above 100 µM; in [9], above 100 µM; in [10], 22.8 µM.

With `O=C1/C(=C/c2cccc(F)c2)CN(C(=O)C(Cl)Cl)C/C1=C\c1cccc(F)c1`, the GI50 in test [1] is 0.186 µM; in [2] it was 0.392 µM; in test [3] it was 0.0905 µM; in test [4] it was 0.0345 µM; in [5], 0.0855 µM; in [6] it was 0.433 µM. The GI50 in test [7] was 0.263 µM; in test [8], 0.427 µM; in [9], 0.0325 µM; in [10], 0.176 µM. For the same compound, the TGI in test [1] was determined as 0.539 µM; in [2], 1.73 µM; in [3] it was 3.6 µM; in test [4], 17.7 µM; in [5], 0.312 µM; in test [6] it was 1.45 µM. Moreover, the TGI was found to be 0.804 µM in [7], 1.75 µM in test [8], 0.125 µM in test [9] and 0.387 µM in test [10].

Regarding `COn1cc(C(=O)N=C(SC)SC)c2ccccc21`, the GI50 is 25.1 µM in test [1]; 68.7 µM in test [2]; 9.42 µM in test [3]; 22.3 µM in test [4]; 22.4 µM in test [5]; 25 µM in [7]. The GI50 in test [8] is above 100 µM; in test [9], 34.8 µM; in test [10], 40.9 µM. Further, the TGI in test [1] was above 100 µM; in test [2], above 100 µM; in test [3], 30.1 µM; in test [4] it was 91 µM; in [5], 62.5 µM; in test [7], 77.5 µM. Further, the TGI in test [8], in test [9] and in [10] was above 100 µM each time.

For `CC(C)Cn1cnc2c(SCc3ccccn3)nc(N)nc21`, the TGI in test [1], in [2], in test [4], in [5], in test [6] and in test [7] was above 100 µM each time. In addition, the TGI in [8], in test [9] and in [10] was above 100 µM throughout.

Regarding `CCN1C(=O)N(CC)C2C1NN=c1s/c(=C\c3cnc(C)n3C)c(=O)n12` (stereo not given), the GI50 is 2.07 µM in [1]; 0.324 µM in test [2]; 3.24 µM in [3]; 2.75 µM in [4]; 3.42 µM in test [5]; 7.19 µM in test [6]. Moreover, the GI50 in test [7] is 3.65 µM; in [8] it was 4.1 µM; in test [9], 2.01 µM; in test [10], 5 µM. Moreover, the TGI in test [1] was above 100 µM; in test [2], 3.44 µM; in [3] it was above 100 µM; in [4], above 100 µM; in [5] it was above 100 µM; in test [6] it was above 100 µM. Also, the TGI in [7], in test [8], in [9] and in [10] was above 100 µM each time.

Turning to `O=C(CN1CCN(c2ccccn2)CC1)Nc1ccc(Cl)cc1C(=O)c1ccccc1Cl`, the GI50 in test [1] was 6 µM; in test [2], above 100 µM; in test [3] it was 5.49 µM; in test [4] it was 9.99 µM; in [5], 7.85 µM; in test [6], above 100 µM. The GI50 was 45.4 µM in test [7], above 100 µM in test [8], above 100 µM in test [9] and 9.38 µM in test [10]. Also, the TGI in test [1], in test [2], in [3], in test [4], in test [5] and in [6] was above 100 µM each time. Besides, the TGI in test [7], in test [8], in [9] and in test [10] was above 100 µM in each case.

`CSc1nc(-c2cccc(NC(=O)CCl)c2)c(C#N)c(=O)n1C`: the GI50 in test [1] is 2.4 µM; in test [2] it was 1.19 µM; in [4] it was 0.0989 µM; in test [5] it was 1.27 µM; in [6] it was 2.38 µM; in [7], 1.88 µM. In addition, the figures for the GI50 in test [9] and in [10] were 1.51 µM and 1.47 µM, respectively. For the same compound, the TGI in [1] is 8.12 µM; in [2], 2.47 µM; in [4] it was 9.37 µM; in [5], 2.88 µM; in [6], 5.53 µM; in test [7] it was 3.65 µM. Further, the TGI in [9] is 3.44 µM; in test [10] it was 2.82 µM.

Consider `CCCC(CCC)C(=O)O`, for which the GI50 in test [1], in test [2], in test [3], in test [4], in test [5] and in test [6] was above 100 µM throughout. The GI50 in test [7] is above 20000 µM; in test [8] it was above 100 µM; in test [9], above 100 µM; in test [10] it was above 100 µM. For the same compound, the TGI in test [1] was above 20000 µM; in test [2], > 100 µM and 18400 µM; in [3], above 20000 µM; in test [4], above 20000 µM; in test [5], above 20000 µM; in test [6] it was above 20000 µM. The TGI in test [7] was above 20000 µM; in test [8] it was > 100 µM and 12000 µM; in [9] it was above 20000 µM; in test [10], above 20000 µM.

Regarding `Nc1ncnc2c1ncn2C1OC(C(=O)OCCO)C(O)C1O` (stereo not given), the TGI in test [1], in test [2], in test [3], in test [4], in test [5] and in test [6] was above 100 µM throughout. In addition, the TGI in test [7], in test [8], in test [9] and in [10] was above 100 µM each time.

In the case of `NCCNc1ncnc2ccc(Cl)cc12`, the TGI in test [1], in test [2], in test [4], in test [5], in test [6] and in test [7] was above 100 µM in each case. For the same compound, the TGI in test [8], in [9] and in test [10] was above 100 µM in each case.

For the compound `CC(=O)c1cccc(NC(=O)/C(=N\NC(=S)NN)C2C(=O)Nc3ccccc3S2=O)c1` (stereo not given), the TGI in test [1], in [2], in [3], in [4], in test [6] and in test [7] was above 100 µM each time. The TGI in [8], in test [9] and in test [10] was above 100 µM throughout.

Consider `CC(C)CC1NC(=O)C(C(C)C)NC(=O)CC(C)COC(=O)C(CC(C)C)N(C)C(=O)C(C(C)C)NC(=O)C(C(C)C)OC1=O` (stereo not given), for which the TGI was above 50 µM in [1]; 30.2 µM in test [2]; above 50 µM in [3]; above 50 µM in test [4]; above 50 µM in [5]; above 50 µM in [7]. Besides, the TGI in [8], in test [9] and in test [10] was above 50 µM throughout.

With `COc1ccc2c(c1)C(=O)c1c-2n(CCCNCCO)c(=O)c2cc([N+](=O)[O-])ccc12`, the GI50 in test [1] is below 0.0137 µM; in [2], below 0.01 µM; in test [3] it was below 0.01 µM; in [4], below 0.01 µM; in test [5] it was below 0.0211 µM; in [6], 0.28 µM. The values for the GI50 in test [7], in test [8] and in test [9] were 0.0733 µM, below 0.01 µM and below 0.01 µM, respectively. Moreover, the TGI in [1] was 1.33 µM; in test [2], 0.172 µM; in test [3] it was below 0.01 µM; in test [4], below 0.01 µM; in [5], 1.19 µM; in test [6], 11.8 µM. Also, the TGI amounted to 4.77 µM in [7], 0.378 µM in test [8] and 1.14 µM in test [9].

On to `O=C1CC2OCC=C3CN4CCC56c7ccccc7N1C5C2C3CC46` (stereo not given) (tested in a mixture with another compound), for which the GI50 in test [1] is above 50 µg/mL; in test [2], above 50 µg/mL; in [3], 11.5 µg/mL; in test [5] it was above 50 µg/mL; in test [6], above 50 µg/mL; in [7], above 50 µg/mL. For the same compound, the GI50 in test [8], in [9] and in test [10] was above 50 µg/mL in each case. Moreover, the TGI in test [1] is above 50 µg/mL; in test [2] it was above 50 µg/mL; in test [3], 24.9 µg/mL; in test [5], above 50 µg/mL; in test [6], above 50 µg/mL; in test [7], above 50 µg/mL. Further, the TGI in [8], in [9] and in test [10] was above 50 µg/mL throughout.
